Assay results taken from publication PMC10562414, “GLP-1R signaling neighborhoods associate with the susceptibility to adverse drug reactions of incretin mimetics” (Nature Communications, 2023).

Legend:
GLP-1R [1] = molecular target: T1, GLP-1R (Homo sapiens, UniProt P43220); assay: ebBRET pathway activation (effector membrane translocation, 15 pathways) at the plasma membrane (rGFP-CAAX); format: cell-based; design: Potency (logEC50): scale not given here; settings: for Efficacy (normalized) / Emax / Potency (logEC50): Plasma membrane; for Efficacy (normalized): Fig. 2c; for Potency (logEC50): Fig. 2d
GLP-1R [2] = molecular target: T1, GLP-1R; assay: Inverted Gini coefficients for pathway selectivity (efficacy, potency) per compartment
Procedure: Inverted Gini coefficients depict differences in drug-induced pathway selectivity for efficacy and potency. Inverted Gini coefficients were calculated to compare the similarities among the 15 tested pathways (Gs, Gq, G11 , G14, G15, G12, G13, Gi1, Gi2, Gi3, GoA, GoB, Gz, GRK/Gb g and bARR) for efficacy (a) and potency (b) across the four compartments included in this study (PM, EE, GA, ER) where 1 represents equality and 0 represents dissimilarity.

[3] = plasma membrane rGFP-CAAX, HEK293, PDZRhoGEF-RlucII, agonist incubation 0 min, as tabulated for polar area diagram, n=3-6
[4] = plasma membrane rGFP-CAAX, HEK293, Rap1Gap-RlucII, agonist incubation 0 min, as tabulated for polar area diagram, n=3-6
[5] = plasma membrane rGFP-CAAX, HEK293, Rap1Gap-RlucII, agonist incubation 0 min, normalized to the highest responding drug, F test P < 0.00625, n=3-6
[6] = plasma membrane rGFP-CAAX, HEK293, p63RhoGEF-RlucII, agonist incubation 0 min, as tabulated for polar area diagram, n=3-6
[7] = plasma membrane rGFP-CAAX, HEK293, p63RhoGEF-RlucII, agonist incubation 0 min, normalized to the highest responding drug, F test P < 0.00625, n=3-6

T1 sequence (P43220 24-463): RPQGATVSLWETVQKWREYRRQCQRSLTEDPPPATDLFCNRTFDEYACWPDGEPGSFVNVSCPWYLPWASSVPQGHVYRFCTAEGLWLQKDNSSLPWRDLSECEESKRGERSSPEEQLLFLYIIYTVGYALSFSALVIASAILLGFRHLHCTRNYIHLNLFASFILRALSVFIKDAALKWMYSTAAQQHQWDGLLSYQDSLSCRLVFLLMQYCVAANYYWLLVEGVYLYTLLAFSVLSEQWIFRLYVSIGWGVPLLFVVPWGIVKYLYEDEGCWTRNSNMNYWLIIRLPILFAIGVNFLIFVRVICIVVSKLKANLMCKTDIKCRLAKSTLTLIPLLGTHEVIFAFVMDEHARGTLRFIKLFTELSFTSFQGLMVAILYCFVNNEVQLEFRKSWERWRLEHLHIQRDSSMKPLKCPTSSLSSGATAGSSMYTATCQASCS

## N#Cc1ccc(COc2cccc(C3CCN(Cc4nc5ccc(C(=O)O)cc5n4C[C@@H]4CCO4)CC3)n2)c(F)c1 [Danuglipron]
GLP-1R [1]; 15 pathways, HEK293, ebBRET
  pathway activation at the plasma membrane, in words: biased away from βARR towards Gs and Gi/o
GLP-1R [1]; GRK2/Gβγ
  Efficacy (normalized): 0.6954
GLP-1R [1]; GRK/Gβγ
  Emax: 0.5067
GLP-1R [1]; Gα11
  Emax: 0
  Efficacy (normalized): 0
  Potency (logEC50): 0
GLP-1R [1]; Gα12
  Emax: 0
  Efficacy (normalized): 0
  Potency (logEC50): 0
GLP-1R [1]; Gα13
  Emax: 0
  Efficacy (normalized): 0
  Potency (logEC50): 0
GLP-1R [1]; Gα14
  Emax: 0
  Efficacy (normalized): 0
  Potency (logEC50): 0
GLP-1R [1]; Gα15
  Emax: 0
  Efficacy (normalized): 0
  Potency (logEC50): 0
GLP-1R [1]; Gαi1
  Emax: 0.0218
  Efficacy (normalized): 0.3729
  Potency (logEC50): 0.3182
GLP-1R [1]; Gαi2
  Emax: 0.2304
  Efficacy (normalized): 0.9309
  Potency (logEC50): 0.1266
GLP-1R [1]; Gαi3
  Emax: 0.03983
  Efficacy (normalized): 0.6445
  Potency (logEC50): 0.2454
GLP-1R [1]; GαoA
  Emax: 0
  Efficacy (normalized): 0
  Potency (logEC50): 0
GLP-1R [1]; GαoB
  Emax: 0.4329
  Efficacy (normalized): 0.5975
  Potency (logEC50): 0.326
GLP-1R [1]; Gαq
  Emax: 0
  Efficacy (normalized): 0
  Potency (logEC50): 0
GLP-1R [1]; Gαs
  Emax: 1.832
  Efficacy (normalized): 0.7714
  Potency (logEC50): 0.5221
GLP-1R [1]; Gαz
  Emax: 0.2013
  Efficacy (normalized): 0.678
  Potency (logEC50): 0.3391
GLP-1R [1]; βARR
  Emax: 0.3843
GLP-1R [1]; βARR2
  Efficacy (normalized): 0.2947
GLP-1R [1]; plasma membrane rGFP-CAAX, HEK293, GRK2-D110A-RlucII, agonist incubation 0 min, normalized to the highest responding drug, F test P < 0.00625, n=3-6
  Efficacy (normalized), GRK2/Gβγ: 0.6954
GLP-1R [1]; [3]
  Potency (logEC50), Gα12: 0
  Potency (logEC50), Gα13: 0
GLP-1R [1]; plasma membrane rGFP-CAAX, HEK293, PDZRhoGEF-RlucII, agonist incubation 0 min, normalized to the highest responding drug, F test P < 0.00625, n=3-6
  Efficacy (normalized), Gα13: 0
GLP-1R [1]; [4]
  Potency (logEC50), Gαi1: 0.3182
  Potency (logEC50), Gαi2: 0.1266
  Potency (logEC50), Gαi3: 0.2454
  Potency (logEC50), GαoA: 0
  Potency (logEC50), GαoB: 0.326
  Potency (logEC50), Gαz: 0.3391
GLP-1R [1]; [5]
  Efficacy (normalized), Gαi1: 0.3729
  Efficacy (normalized), Gαi2: 0.9309
  Efficacy (normalized), Gαi3: 0.6445
  Efficacy (normalized), GαoA: 0
  Efficacy (normalized), GαoB: 0.5975
  Efficacy (normalized), Gαz: 0.678
GLP-1R [1]; plasma membrane rGFP-CAAX, HEK293, Rluc8-mGs, agonist incubation 0 min, as tabulated for polar area diagram, n=3-6
  Potency (logEC50), Gαs: 0.5221
GLP-1R [1]; plasma membrane rGFP-CAAX, HEK293, Rluc8-mGs, agonist incubation 0 min, normalized to the highest responding drug, F test P < 0.00625, n=3-6
  Efficacy (normalized), Gαs: 0.7714
GLP-1R [1]; [6]
  Potency (logEC50), Gα11: 0
  Potency (logEC50), Gα14: 0
  Potency (logEC50), Gα15: 0
  Potency (logEC50), Gαq: 0
GLP-1R [1]; [7]
  Efficacy (normalized), Gα11: 0
  Efficacy (normalized), Gα14: 0
  Efficacy (normalized), Gα15: 0
  Efficacy (normalized), Gαq: 0
GLP-1R [1]; plasma membrane rGFP-CAAX, HEK293, β-arrestin-2-RlucII, agonist incubation 0 min, normalized to the highest responding drug, F test P < 0.00625, n=3-6
  Efficacy (normalized), βARR2: 0.2947
GLP-1R [2]; Early endosomes, Supplementary Fig. 18a
  1 - Gini: 0.2929
GLP-1R [2]; Early endosomes, Supplementary Fig. 18b
  1 - Gini: 0.7742
GLP-1R [2]; Endoplasmic reticulum, Supplementary Fig. 18a
  1 - Gini: 0.09
GLP-1R [2]; Endoplasmic reticulum, Supplementary Fig. 18b
  1 - Gini: 0.8902
GLP-1R [2]; Golgi apparatus, Supplementary Fig. 18a
  1 - Gini: 0.1115
GLP-1R [2]; Golgi apparatus, Supplementary Fig. 18b
  1 - Gini: 0.854
GLP-1R [2]; Plasma membrane, Supplementary Fig. 18a
  1 - Gini: 0.403
GLP-1R [2]; Plasma membrane, Supplementary Fig. 18b
  1 - Gini: 0.7941
